Data as given in ChEMBL document CHEMBL1743201, “Casarett and Doull's Toxicology The Basic Science of Poisons, 7th edition” (2008).
Blank lines part the entries; values can stand above or below the molecule they belong to.

How the values were obtained:
Format in all cases: ADME
[1] = target: T1, Glutathione S-transferase kappa 1 (Homo sapiens, UniProt Q9Y2Q3); assay: Substrates for human mitochondrial glutathione transferase GSTK1
T1 sequence (Q9Y2Q3 whole entry): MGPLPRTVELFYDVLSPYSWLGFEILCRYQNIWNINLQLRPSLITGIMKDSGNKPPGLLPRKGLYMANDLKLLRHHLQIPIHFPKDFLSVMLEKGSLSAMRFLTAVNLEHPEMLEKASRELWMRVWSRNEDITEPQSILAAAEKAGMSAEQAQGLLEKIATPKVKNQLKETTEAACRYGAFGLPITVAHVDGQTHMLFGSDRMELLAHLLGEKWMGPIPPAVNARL

[2] = target: T2, Maleylacetoacetate isomerase (Homo sapiens, UniProt O43708); assay: Substrates for human cytosolic glutathione transferase GSTZ1
T2 sequence (O43708 whole entry): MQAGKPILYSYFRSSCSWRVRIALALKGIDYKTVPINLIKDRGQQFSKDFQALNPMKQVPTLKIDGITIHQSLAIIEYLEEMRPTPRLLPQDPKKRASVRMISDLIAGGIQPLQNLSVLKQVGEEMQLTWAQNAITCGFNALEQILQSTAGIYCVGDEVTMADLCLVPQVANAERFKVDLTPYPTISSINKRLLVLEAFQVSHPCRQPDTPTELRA

[3] = target: T3, Glutathione S-transferase A4 (Homo sapiens, UniProt O15217); assay: Substrates for human cytosolic glutathione transferase GSTA4
T3 sequence (O15217 whole entry): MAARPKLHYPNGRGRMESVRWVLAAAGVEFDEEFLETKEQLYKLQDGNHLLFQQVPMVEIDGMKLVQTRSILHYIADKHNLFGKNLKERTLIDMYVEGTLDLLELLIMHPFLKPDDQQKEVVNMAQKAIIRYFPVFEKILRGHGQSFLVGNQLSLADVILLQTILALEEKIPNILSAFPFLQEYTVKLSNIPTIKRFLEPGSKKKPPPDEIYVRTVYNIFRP

[4] = target: T4, Glutathione S-transferase Mu 2 (Homo sapiens, UniProt P28161); assay: Substrates for human cytosolic glutathione transferase GSTM2
T4 sequence (P28161 whole entry): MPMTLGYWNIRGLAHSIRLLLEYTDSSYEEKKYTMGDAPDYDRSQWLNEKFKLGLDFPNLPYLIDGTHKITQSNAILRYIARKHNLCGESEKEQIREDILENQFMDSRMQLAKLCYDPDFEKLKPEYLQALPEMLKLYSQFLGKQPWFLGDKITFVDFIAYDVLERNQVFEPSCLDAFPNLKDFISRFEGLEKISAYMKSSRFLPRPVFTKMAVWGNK

[5] = target: Glutathione S-transferase P (Homo sapiens, UniProt P09211); assay: Substrates for human cytosolic glutathione transferase GSTP1
[6] = target: T5, UDP-glucuronosyltransferase 2B4 (Homo sapiens, UniProt P06133); assay: Substrate of human UDP-glucuronosyltransferase UGT2B4
T5 sequence (P06133 whole entry): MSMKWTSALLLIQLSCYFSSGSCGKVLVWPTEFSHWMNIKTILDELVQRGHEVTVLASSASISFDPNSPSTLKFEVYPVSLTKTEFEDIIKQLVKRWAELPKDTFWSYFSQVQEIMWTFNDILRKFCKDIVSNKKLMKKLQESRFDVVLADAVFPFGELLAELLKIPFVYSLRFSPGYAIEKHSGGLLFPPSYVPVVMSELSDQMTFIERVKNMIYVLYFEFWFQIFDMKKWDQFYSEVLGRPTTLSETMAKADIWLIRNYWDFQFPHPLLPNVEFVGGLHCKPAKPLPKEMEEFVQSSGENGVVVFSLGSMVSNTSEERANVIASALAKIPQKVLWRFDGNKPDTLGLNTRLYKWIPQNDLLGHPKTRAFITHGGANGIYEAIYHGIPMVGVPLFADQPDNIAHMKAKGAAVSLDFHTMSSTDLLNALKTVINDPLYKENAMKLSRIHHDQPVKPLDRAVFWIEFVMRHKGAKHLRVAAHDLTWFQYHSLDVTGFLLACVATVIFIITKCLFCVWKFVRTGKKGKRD

[7] = target: T6, UDP-glucuronosyltransferase 1A1 (Homo sapiens, UniProt P22309); assay: Substrate of human UDP-glucuronosyltransferase UGT1A1
T6 sequence (P22309 whole entry): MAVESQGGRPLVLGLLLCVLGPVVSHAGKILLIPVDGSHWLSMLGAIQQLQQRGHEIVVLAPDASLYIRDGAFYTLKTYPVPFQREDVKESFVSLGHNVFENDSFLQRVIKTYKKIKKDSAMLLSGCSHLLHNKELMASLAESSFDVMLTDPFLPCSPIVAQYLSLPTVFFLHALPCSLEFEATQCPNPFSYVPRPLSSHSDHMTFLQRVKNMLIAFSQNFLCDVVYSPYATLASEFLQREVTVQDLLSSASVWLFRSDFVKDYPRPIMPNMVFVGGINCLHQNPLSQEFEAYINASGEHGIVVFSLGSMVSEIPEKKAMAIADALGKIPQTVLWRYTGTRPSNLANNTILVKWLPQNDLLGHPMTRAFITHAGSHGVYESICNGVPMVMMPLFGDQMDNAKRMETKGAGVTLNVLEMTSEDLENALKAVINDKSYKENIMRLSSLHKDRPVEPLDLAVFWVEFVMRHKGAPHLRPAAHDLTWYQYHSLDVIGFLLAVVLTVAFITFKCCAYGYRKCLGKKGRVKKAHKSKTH

[8] = target: T7, UDP-glucuronosyltransferase 2B7 (Homo sapiens, UniProt P16662); assay: Substrate of human UDP-glucuronosyltransferase UGT2B7
T7 sequence (P16662 whole entry): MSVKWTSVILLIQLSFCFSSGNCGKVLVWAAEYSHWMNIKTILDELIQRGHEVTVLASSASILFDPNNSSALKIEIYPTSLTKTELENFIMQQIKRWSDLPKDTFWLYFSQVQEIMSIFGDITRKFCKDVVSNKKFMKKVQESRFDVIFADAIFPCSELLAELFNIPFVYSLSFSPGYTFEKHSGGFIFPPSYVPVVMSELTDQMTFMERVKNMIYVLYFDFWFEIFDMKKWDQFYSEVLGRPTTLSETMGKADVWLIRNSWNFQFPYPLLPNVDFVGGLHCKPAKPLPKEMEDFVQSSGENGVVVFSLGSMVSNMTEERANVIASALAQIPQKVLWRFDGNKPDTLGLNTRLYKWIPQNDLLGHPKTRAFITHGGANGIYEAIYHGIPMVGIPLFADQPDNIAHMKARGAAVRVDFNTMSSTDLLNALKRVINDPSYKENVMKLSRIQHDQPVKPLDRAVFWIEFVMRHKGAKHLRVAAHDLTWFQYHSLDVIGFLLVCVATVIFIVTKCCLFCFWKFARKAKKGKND

Cytochrome P450 2C8 [9] = target: T8, Cytochrome P450 2C8 (Homo sapiens, UniProt P10632); assay: Clinically relevant substrates of human liver microsomal P450 enzymes, isoform CYP2C8; settings: microsomes
T8 sequence (P10632 whole entry): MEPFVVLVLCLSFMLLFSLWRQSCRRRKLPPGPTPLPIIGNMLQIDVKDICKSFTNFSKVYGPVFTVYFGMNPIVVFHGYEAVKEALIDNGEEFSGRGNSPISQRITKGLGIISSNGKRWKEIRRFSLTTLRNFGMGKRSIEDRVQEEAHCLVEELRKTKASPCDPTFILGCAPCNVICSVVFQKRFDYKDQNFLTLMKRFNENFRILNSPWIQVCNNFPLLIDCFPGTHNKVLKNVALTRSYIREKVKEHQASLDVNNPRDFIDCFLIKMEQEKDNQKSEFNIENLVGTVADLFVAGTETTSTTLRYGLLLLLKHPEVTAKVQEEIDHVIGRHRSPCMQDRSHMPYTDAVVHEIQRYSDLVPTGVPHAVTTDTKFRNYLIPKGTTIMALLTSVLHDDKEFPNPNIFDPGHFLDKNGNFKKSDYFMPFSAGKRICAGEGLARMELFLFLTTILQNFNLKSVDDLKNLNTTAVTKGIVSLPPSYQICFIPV

[10] = target: T9, UDP-glucuronosyltransferase 2B15 (Homo sapiens, UniProt P54855); assay: Substrate of human UDP-glucuronosyltransferase UGT2B15
T9 sequence (P54855 whole entry): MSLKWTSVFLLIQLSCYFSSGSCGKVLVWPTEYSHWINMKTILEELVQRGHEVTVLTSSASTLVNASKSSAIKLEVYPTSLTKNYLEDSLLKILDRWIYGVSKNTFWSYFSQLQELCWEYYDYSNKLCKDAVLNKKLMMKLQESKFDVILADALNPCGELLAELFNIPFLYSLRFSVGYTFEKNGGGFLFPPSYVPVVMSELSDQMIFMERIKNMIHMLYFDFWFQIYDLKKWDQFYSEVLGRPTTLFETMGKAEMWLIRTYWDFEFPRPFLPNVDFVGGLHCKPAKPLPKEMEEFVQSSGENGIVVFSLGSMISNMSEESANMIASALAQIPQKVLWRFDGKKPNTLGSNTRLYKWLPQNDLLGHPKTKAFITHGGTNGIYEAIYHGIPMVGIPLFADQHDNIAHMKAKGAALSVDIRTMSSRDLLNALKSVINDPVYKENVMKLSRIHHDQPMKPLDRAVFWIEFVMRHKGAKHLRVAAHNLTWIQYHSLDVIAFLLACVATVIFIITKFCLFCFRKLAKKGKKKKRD

[11] = target: T10, UDP-glucuronosyltransferase 2B17 (Homo sapiens, UniProt O75795); assay: Substrate of human UDP-glucuronosyltransferase UGT2B17
T10 sequence (O75795 whole entry): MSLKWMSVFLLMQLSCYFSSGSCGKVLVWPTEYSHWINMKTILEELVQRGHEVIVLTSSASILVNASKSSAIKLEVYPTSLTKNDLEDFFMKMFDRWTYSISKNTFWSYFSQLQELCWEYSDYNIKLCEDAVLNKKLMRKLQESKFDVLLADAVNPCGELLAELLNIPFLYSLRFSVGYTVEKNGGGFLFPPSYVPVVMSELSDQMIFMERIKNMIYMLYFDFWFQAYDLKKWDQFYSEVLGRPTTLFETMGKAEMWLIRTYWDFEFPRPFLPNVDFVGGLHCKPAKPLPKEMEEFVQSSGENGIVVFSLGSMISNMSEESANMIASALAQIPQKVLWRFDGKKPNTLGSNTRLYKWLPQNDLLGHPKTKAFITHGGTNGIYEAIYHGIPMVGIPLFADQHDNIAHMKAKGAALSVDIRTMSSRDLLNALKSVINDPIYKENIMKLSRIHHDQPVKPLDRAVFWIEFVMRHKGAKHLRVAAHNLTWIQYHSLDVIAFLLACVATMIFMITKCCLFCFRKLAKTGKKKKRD

Cytochrome P450 2C8 [12] = target: T8, Cytochrome P450 2C8; assay: Clinically relevant inhibitors of human liver microsomal P450 enzymes, isoform CYP2C8; settings: microsomes
[13] = target: T11, UDP-glucuronosyltransferase 1A9 (Homo sapiens, UniProt O60656); assay: Substrate of human UDP-glucuronosyltransferase UGT1A9
T11 sequence (O60656 whole entry): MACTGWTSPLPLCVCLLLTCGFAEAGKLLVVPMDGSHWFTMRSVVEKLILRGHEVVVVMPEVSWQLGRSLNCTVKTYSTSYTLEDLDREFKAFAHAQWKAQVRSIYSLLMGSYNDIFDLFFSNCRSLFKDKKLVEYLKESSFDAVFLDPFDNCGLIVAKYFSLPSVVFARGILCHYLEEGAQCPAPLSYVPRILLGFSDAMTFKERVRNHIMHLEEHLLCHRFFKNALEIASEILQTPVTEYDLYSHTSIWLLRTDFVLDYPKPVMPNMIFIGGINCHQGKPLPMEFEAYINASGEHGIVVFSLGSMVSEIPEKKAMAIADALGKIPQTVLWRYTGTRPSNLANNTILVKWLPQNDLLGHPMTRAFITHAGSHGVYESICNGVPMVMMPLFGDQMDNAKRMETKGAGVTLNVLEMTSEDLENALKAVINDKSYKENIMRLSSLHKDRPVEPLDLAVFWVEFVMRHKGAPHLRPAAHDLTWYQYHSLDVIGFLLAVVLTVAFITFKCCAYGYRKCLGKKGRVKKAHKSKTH

Chain of Glutathione S-transferase P (P09211 whole entry): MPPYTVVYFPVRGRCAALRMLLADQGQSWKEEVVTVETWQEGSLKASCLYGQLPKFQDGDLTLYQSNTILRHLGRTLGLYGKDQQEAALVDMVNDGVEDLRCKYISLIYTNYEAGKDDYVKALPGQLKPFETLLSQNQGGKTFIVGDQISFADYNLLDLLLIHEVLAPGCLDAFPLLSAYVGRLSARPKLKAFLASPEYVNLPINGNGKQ

Compound: CCCCC[C@@H](/C=C/C=C\C/C=C\C/C=C\CCCC(=O)O)OO
Activity [1]: Substrate

Compound: CC(Cl)C(=O)O (configuration not stated)
Activity [2]: Substrate

Compound: CCCCCCC(O)/C=C/C=O (configuration not stated)
Activity [3]: Substrate

Compound: C/C=C/C(=O)OCC1=CCCCC1=O
Activity [4]: Substrate
Activity [5]: Substrate
Activity [3]: Substrate

Compound: CCCCCC(O)/C=C/C=O (configuration not stated) [4-HYDROXYNON-2-ENAL]
Activity [3]: Substrate

Compound: COc1ccccc1OCCNCC(O)COc1cccc2[nH]c3ccccc3c12 (configuration not stated) [CARVEDILOL]
Activity [6]: Substrate
Activity [7]: Substrate
Activity [8]: Substrate

Compound: O=C(O)C(Cl)Cl [DICHLOROACETIC ACID]
Activity [2]: Substrate

Compound: C=C(CC)C(=O)c1ccc(OCC(=O)O)c(Cl)c1Cl [ETHACRYNIC ACID]
Activity [3]: Substrate

Compound: C=CCc1ccc(O)c(OC)c1 [EUGENOL]
Activity [11]: Substrate

Compound: O=C(O)CF [FLUOROACETATE]
Activity [2]: Substrate

Compound: O=c1c(O)c(-c2ccccc2)oc2cc(O)cc(O)c12 [GALANGIN]
Activity [11]: Substrate

Compound: O=C(O)/C=C\C(=O)CC(=O)CC(=O)O [MALEYLACETOACETATE]
Activity [2]: Substrate

Compound: CCOc1cc(CC(=O)N[C@@H](CC(C)C)c2ccccc2N2CCCCC2)ccc1C(=O)O [REPAGLINIDE]
Activity (Cytochrome P450 2C8 [9]): Substrate

Compound: COc1cc2ccc(=O)oc2cc1O [SCOPOLETIN]
Activity [11]: Substrate
Activity [13]: Substrate

Now from value to molecule:

Activity [1]: Substrate
Compound: CCCCC/C=C\C/C=C\C/C=C\C=C\CCCCC(=O)O

Activity (Cytochrome P450 2C8 [9]): Substrate
Compound: COCc1c(C(C)C)nc(C(C)C)c(/C=C/[C@@H](O)C[C@@H](O)CC(=O)O)c1-c1ccc(F)cc1 [CERIVASTATIN]

Activity [10]: Substrate
Activity [6]: Substrate
Compound: C[C@]12CC[C@@H]3c4ccc(O)cc4CC[C@H]3[C@@H]1C[C@@H](O)[C@@H]2O [ESTRIOL]

Activity [6]: Substrate
Compound: C[C@H](CCC(=O)O)[C@H]1CC[C@H]2[C@@H]3C[C@H](O)[C@@H]4C[C@H](O)CC[C@]4(C)[C@H]3CC[C@]12C [HYODEOXYCHOLIC_ACID]

Activity (Cytochrome P450 2C8 [9]): Substrate
Compound: CC(=O)O[C@H]1C(=O)[C@@]2(C)[C@H]([C@H](OC(=O)c3ccccc3)[C@]3(O)C[C@H](OC(=O)[C@H](O)[C@@H](NC(=O)c4ccccc4)c4ccccc4)C(C)=C1C3(C)C)[C@]1(OC(C)=O)CO[C@@H]1C[C@@H]2O [PACLITAXEL]

Activity (Cytochrome P450 2C8 [12]): Inhibitor
Activity (Cytochrome P450 2C8 [9]): Substrate
Compound: CN(CCOc1ccc(CC2SC(=O)NC2=O)cc1)c1ccccn1 (configuration not stated) [ROSIGLITAZONE]
